Assay results as given in ChEMBL document CHEMBL5512620, “Design and synthesis of forsythin derivatives as anti-inflammatory agents for acute lung injury” (Eur J Med Chem, 2024).
Calls of active or inactive are those of the source. The rule behind the calls is not given here.

How the values were obtained:
RAW264.7 [1] = assay: Cytotoxicity activity mouse RAW264.7 cells assessed as effect on cell viability at 25 uM incubated for 24 hrs by MTT assay; format: toxicity, cell-based; conditions: raw264.7, 24 h
RAW264.7 [2] = assay: Antiinflammatory activity in mouse RAW264.7 cells assessed as inhibition of LPS-induced IL-6 secretion by measuring fold change at 25 uM preincubated with compound for 1 hr followed by LPS-induction and measured after 24 hrs by ELISA analysis relative to Forsythin; format: functional; conditions: time 25 hrs
Mus musculus [3] = assay: Antiinflammatory activity in LPS-induced acute lung injury BALB/c mouse model assessed as reduction in W/D weight gain ratio in lung at 5 to 20 mg/kg, po administered for 3 days followed by LPS-induction for 1 hr and measured after 6 hrs; format: functional, organism-based; conditions: dose 5-20 mg/kg, time 79.0 hrs
RAW264.7 [4] = assay: Antiinflammatory activity in mouse RAW264.7 cells assessed as inhibition of LPS-induced IL-6 production at 25 uM preincubated with compound for 1 hr followed by LPS-induction and measured after 24 hrs by ELISA analysis relative to control; format: functional; conditions: time 25 hrs
RAW264.7 [5] = assay: Anti-inflammatory activity in mouse RAW264.7 cells assessed as inhibition of LPS-induced COX-2 […] expression at 25 uM preincubated with compound for 1 hr followed by LPS stimulation and measured after 24 hrs by Western blot analysis; format: functional, cell-based; conditions: time 25.0 hrs
RAW264.7 [6] = assay: Inhibition of IkappaB phosphorylation in mouse RAW264.7 cells at 6.25 to 25 uM pretreated with compound for 1 hr followed by LPS-induction and measured after 24 hrs by Western blot analysis; format: cell-based; conditions: dose 6.25-25 µM, time 25.0 hrs
RAW264.7 [7] = assay: Anti-inflammatory activity in mouse RAW264.7 cells assessed as inhibition of LPS-induced iNOS […] expression preincubated with compound for 1 hr followed by LPS stimulation and measured after 24 hrs by Western blot analysis; format: functional, cell-based; conditions: dose 6.25-25 µM, time 25.0 hrs
RAW264.7 [8] = assay: Antiinflammatory activity in mouse RAW264.7 cells assessed as inhibition of LPS-induced IL-6 release at 25 uM preincubated with compound for 1 hr followed by LPS-induction and measured after 24 hrs by ELISA analysis; format: functional, cell-based; conditions: time 25.0 hrs
Mus musculus [9] = assay: Antiinflammatory activity in LPS-induced acute lung injury BALB/c mouse model assessed as downregulation of TNF-alpha level in BALF at 20 mg/kg, po administered for 3 days followed by LPS-induction for 1 hr and measured after 6 hrs by ELISA analysis; format: functional, organism-based; conditions: time 79.0 hrs
Mus musculus [10] = assay: Antiinflammatory activity in LPS-induced po dosed acute lung injury BALB/c mouse model assessed as inhibition of COX-2 expression administered for 3 days followed by LPS-induction for 1 hr and measured after 6 hrs by Western blot analysis; format: functional, organism-based; conditions: dose 5-20 mg/kg, time 79.0 hrs
RAW264.7 [11] = assay: Inhibition of NF-kappaB signaling pathway in LPS-induced mouse RAW264.7 cells assessed as reduction in phosphorylated IkappaB to IkappaB relative expression at 6.25 to 25 uM pretreated with compound for 1 hr followed by LPS-induction and measured after 24 hrs by Western blot analysis; format: cell-based; conditions: dose 6.25-25 µM, time 25.0 hrs
[12] = molecular target: Transcription factor p65 (Mus musculus) (UniProt Q04207); assay: Inhibition of NF-kappaB p65 phosphorylation in mouse RAW264.7 cells at 6.25 to 25 uM pretreated with compound for 1 hr followed by LPS-induction and measured after 24 hrs by Western blot analysis; format: cell-based; conditions: dose 6.25-25 µM, time 25.0 hrs
RAW264.7 [13] = assay: Anti-inflammatory activity in mouse RAW264.7 cells assessed as inhibition of LPS-induced iNOS […] expression at 25 uM preincubated with compound for 1 hr followed by LPS stimulation and measured after 24 hrs by Western blot analysis; format: functional, cell-based; conditions: time 25.0 hrs
Mus musculus [14] = assay: Antiinflammatory activity in LPS-induced acute lung injury BALB/c mouse model assessed as improvement in alveolar structure at 20 mg/kg, po administered for 3 days followed by LPS-induction for 1 hr and measured after 6 hrs by H and E staining based analysis; format: functional, organism-based; conditions: time 79.0 hrs
Mus musculus [15] = assay: Antiinflammatory activity in LPS-induced acute lung injury BALB/c mouse model assessed as downregulation of IL-6 level in BALF at 20 mg/kg, po administered for 3 days followed by LPS-induction for 1 hr and measured after 6 hrs by ELISA analysis; format: functional, organism-based; conditions: time 79.0 hrs
RAW264.7 [16] = assay: Antiinflammatory activity in mouse RAW264.7 cells assessed as reduction in LPS-induced IL-6 production preincubated with compound for 1 hr followed by LPS-induction and measured after 24 hrs by ELISA analysis relative to control; format: functional, cell-based
Mus musculus [17] = assay: Antiinflammatory activity in LPS-induced acute lung injury BALB/c mouse model assessed as reduction in NO production in BALF at 20 mg/kg, po administered for 3 days followed by LPS-induction for 1 hr and measured after 6 hrs by Griess reagent based analysis; format: functional, organism-based; conditions: time 79.0 hrs
RAW264.7 [18] = assay: Anti-inflammatory activity in mouse RAW264.7 cells assessed as inhibition of LPS-induced COX-2 […] expression preincubated with compound for 1 hr followed by LPS stimulation and measured after 24 hrs by Western blot analysis; format: functional, cell-based; conditions: dose 6.25-25 µM, time 25.0 hrs
Mus musculus [19] = assay: Antiinflammatory activity in LPS-induced acute lung injury BALB/c mouse model assessed as reduction in NO production in BALF at 5 to 20 mg/kg, po administered for 3 days followed by LPS-induction for 1 hr and measured after 6 hrs by Griess reagent based analysis; format: functional, organism-based; conditions: dose 5-20 mg/kg, time 79.0 hrs
RAW264.7 [20] = assay: Antiinflammatory activity in mouse RAW264.7 cells assessed as reduction in LPS-induced NO release preincubated with compound for 1 hr followed by LPS-induction and measured after 24 hrs by ELISA analysis relative to control; format: functional, cell-based
[21] = molecular target: Transcription factor p65 (Mus musculus) (UniProt Q04207); assay: Inhibition of NF-kappaB signaling pathway in LPS-induced mouse RAW264.7 cells assessed as reduction in phosphorylated NF-kappaB to p65 relative expression at 6.25 to 25 uM pretreated with compound for 1 hr followed by LPS-induction and measured after 24 hrs by Western blot analysis; format: cell-based; conditions: dose 6.25-25 µM, time 25.0 hrs
Mus musculus [22] = assay: Antiinflammatory activity in LPS-induced acute lung injury BALB/c mouse model assessed as reduction in cell infiltration in lung at 20 mg/kg, po administered for 3 days followed by LPS-induction for 1 hr and measured after 6 hrs by H and E staining based analysis; format: functional, organism-based; conditions: time 79.0 hrs
RAW264.7 [23] = assay: Antiinflammatory activity in mouse RAW264.7 cells assessed as reduction in LPS-induced ERK phosphorylation at 6.25 to 25 uM preincubated with compound for 1 hr followed by LPS-induction and measured after 24 hrs by Western blot analysis; format: functional, cell-based; conditions: dose 6.25-25 µM, time 25.0 hrs
Mus musculus [24] = assay: Antiinflammatory activity in LPS-induced acute lung injury BALB/c mouse model assessed as downregulation of IL-6 level in BALF at 5 to 20 mg/kg, po administered for 3 days followed by LPS-induction for 1 hr and measured after 6 hrs by ELISA analysis; format: functional, organism-based; conditions: dose 5-20 mg/kg, time 79.0 hrs
RAW264.7 [25] = assay: Antiinflammatory activity in mouse RAW264.7 cells assessed as reduction in LPS-induced JNK phosphorylation at 6.25 to 25 uM preincubated with compound for 1 hr followed by LPS-induction and measured after 24 hrs by Western blot analysis; format: functional, cell-based; conditions: dose 6.25-25 µM, time 25.0 hrs
Mus musculus [26] = assay: Antiinflammatory activity in LPS-induced acute lung injury BALB/c mouse model assessed as downregulation of TNF-alpha level in BALF at 5 to 20 mg/kg, po administered for 3 days followed by LPS-induction for 1 hr and measured after 6 hrs by ELISA analysis; format: functional, organism-based; conditions: dose 5-20 mg/kg, time 79.0 hrs
Mus musculus [27] = assay: Antiinflammatory activity in LPS-induced po dosed acute lung injury BALB/c mouse model assessed as inhibition of iNOS expression administered for 3 days followed by LPS-induction for 1 hr and measured after 6 hrs by Western blot analysis; format: functional, organism-based; conditions: dose 5-20 mg/kg, time 79.0 hrs
Mus musculus [28] = assay: Antiinflammatory activity in LPS-induced acute lung injury BALB/c mouse model assessed as reduction in lung edema at 20 mg/kg, po administered for 3 days followed by LPS-induction for 1 hr and measured after 6 hrs by H and E staining based analysis; format: functional, organism-based; conditions: time 79.0 hrs
RAW264.7 [29] = assay: Antiinflammatory activity in mouse RAW264.7 cells assessed as reduction in LPS-induced TNF-alpha production preincubated with compound for 1 hr followed by LPS-induction and measured after 24 hrs by ELISA analysis relative to control; format: functional, cell-based
RAW264.7 [30] = assay: Antiinflammatory activity in mouse RAW264.7 cells assessed as reduction in LPS-induced p38 phosphorylation at 6.25 to 25 uM preincubated with compound for 1 hr followed by LPS-induction and measured after 24 hrs by Western blot analysis; format: functional, cell-based; conditions: dose 6.25-25 µM, time 25.0 hrs

Transcription factor p65 (Mus musculus), sequence (Q04207 whole entry): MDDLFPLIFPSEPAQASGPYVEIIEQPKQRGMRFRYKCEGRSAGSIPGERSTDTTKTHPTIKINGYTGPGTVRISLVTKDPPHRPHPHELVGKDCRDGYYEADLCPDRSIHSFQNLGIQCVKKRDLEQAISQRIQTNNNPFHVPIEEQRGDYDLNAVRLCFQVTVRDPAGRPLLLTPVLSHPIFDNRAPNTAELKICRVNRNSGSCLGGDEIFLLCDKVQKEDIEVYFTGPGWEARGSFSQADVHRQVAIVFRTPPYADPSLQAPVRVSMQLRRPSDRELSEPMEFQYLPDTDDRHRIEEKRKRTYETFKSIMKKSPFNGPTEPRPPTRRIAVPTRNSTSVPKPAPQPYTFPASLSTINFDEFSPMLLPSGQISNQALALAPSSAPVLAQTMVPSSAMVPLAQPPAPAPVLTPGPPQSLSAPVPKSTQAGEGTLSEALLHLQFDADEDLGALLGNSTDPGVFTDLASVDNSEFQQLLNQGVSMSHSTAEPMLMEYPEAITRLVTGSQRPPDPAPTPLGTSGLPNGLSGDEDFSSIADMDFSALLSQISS

Compound: COc1ccc([C@H]2OC[C@@H]3[C@H]2CO[C@@H]3c2ccc(O[C@@H]3O[C@@H](COC(=O)c4cc5ccccc5cn4)[C@H](O)[C@@H](O)[C@@H]3O)c(OC)c2)cc1OC (stereo in doubt)
- Activity (RAW264.7 [1]): Non-Toxic

Compound: COc1ccc([C@H]2OC[C@@H]3[C@H]2CO[C@@H]3c2ccc(O[C@@H]3O[C@@H](COC(=O)c4cnc5ccccc5c4)[C@H](O)[C@@H](O)[C@@H]3O)c(OC)c2)cc1OC (stereo in doubt)
- Activity (RAW264.7 [1]): Non-Toxic

Compound: COc1ccc([C@@H]2OC[C@H]3[C@@H]2CO[C@@H]3c2ccc(O[C@H]3O[C@H](COC(=O)c4cn(-c5ccc(F)cc5)nn4)[C@@H](O)[C@H](O)[C@H]3O)c(OC)c2)cc1OC
- Activity (RAW264.7 [1]): Non-Toxic

Compound: COc1ccc([C@@H]2OC[C@H]3[C@@H]2CO[C@@H]3c2ccc(O[C@H]3O[C@H](COC(=O)CNC(=O)OC(C)(C)C)[C@@H](O)[C@H](O)[C@H]3O)c(OC)c2)cc1OC
- Activity (RAW264.7 [1]): Non-Toxic

Compound: COc1cccc(C(=O)OC[C@H]2O[C@H](Oc3ccc([C@H]4OC[C@H]5[C@@H]4CO[C@H]5c4ccc(OC)c(OC)c4)cc3OC)[C@H](O)[C@@H](O)[C@@H]2O)c1
- Activity (RAW264.7 [1]): Non-Toxic

Compound: COc1ccc([C@@H]2OC[C@H]3[C@@H]2CO[C@@H]3c2ccc(O[C@H]3O[C@H](COC(=O)[C@H](Cc4ccccc4)NC(=O)OC(C)(C)C)[C@@H](O)[C@H](O)[C@H]3O)c(OC)c2)cc1OC
- fold change (FC) (RAW264.7 [2]): 7.5
- Activity (Mus musculus [3]): Active
- inhibition at 25 µM (RAW264.7 [4]): 91.8%
- Activity (RAW264.7 [5]): Active
- inhibition (RAW264.7 [6]): Active
- Activity (RAW264.7 [7]): Dose-Dependent Effect
- Activity (RAW264.7 [8]): Active
- Activity (Mus musculus [9]): Active
- Activity (Mus musculus [10]): Dose-Dependent Effect
- inhibition (RAW264.7 [11]): Active
- inhibition [12]: Active
- Activity (RAW264.7 [13]): Active
- Activity (Mus musculus [14]): Active
- Activity (Mus musculus [15]): Active
- IC50 (RAW264.7 [16]): 4.93 µM
- Activity (Mus musculus [17]): Active
- Activity (RAW264.7 [18]): Dose-Dependent Effect
- Activity (Mus musculus [19]): Active
- IC50 (RAW264.7 [20]): 10.9 µM
- inhibition [21]: Active
- Activity (Mus musculus [22]): Active
- Activity (RAW264.7 [23]): Active
- Activity (Mus musculus [24]): Active
- Activity (RAW264.7 [1]): Non-Toxic
- Activity (RAW264.7 [25]): Active
- Activity (Mus musculus [26]): Active
- Activity (Mus musculus [27]): Dose-Dependent Effect
- Activity (Mus musculus [28]): Active
- IC50 (RAW264.7 [29]): > 25 µM
- Activity (RAW264.7 [30]): inactive

Compound: COc1ccc(-n2cc(C(=O)OC[C@H]3O[C@H](Oc4ccc([C@H]5OC[C@H]6[C@@H]5CO[C@H]6c5ccc(OC)c(OC)c5)cc4OC)[C@H](O)[C@@H](O)[C@@H]3O)nn2)cc1
- Activity (RAW264.7 [1]): Non-Toxic

Compound: COc1ccc(/C=C/C(=O)OC[C@H]2O[C@H](Oc3ccc([C@H]4OC[C@H]5[C@@H]4CO[C@H]5c4ccc(OC)c(OC)c4)cc3OC)[C@H](O)[C@@H](O)[C@@H]2O)cc1
- Activity (RAW264.7 [1]): Non-Toxic
